This note sets out measurements from ChEMBL document CHEMBL4024759, “One-Bead-Two-Compound Thioether Bridged Macrocyclic γ-AApeptide Screening Library against EphA2” (J Med Chem, 2017).

The term Kd denotes the equilibrium constant for the complex coming apart.

For assay [1], the system named is C13. The experiment in a line: Antimigratory activity in human C13 cells at 10 uM by scratch-wound motility assay. Format: functional, cell-based. Particulars: TDE = time-dependent effect.
In assay [2] the test system is C13. Put plainly: Antimigratory activity in human C13 cells after 24 hrs by scratch-wound motility assay. Format: functional, cell-based.
The test system of assay [3] is C13. The experiment in a line: Antimigratory activity in human C13 cells assessed as delay in wound closure at 15 uM after 24 hrs by scratch-wound motility assay. Format: functional.
The target in assay [4] is T1, NF-kappa-B inhibitor alpha (Homo sapiens, UniProt P25963).
T1 sequence (P25963 whole entry): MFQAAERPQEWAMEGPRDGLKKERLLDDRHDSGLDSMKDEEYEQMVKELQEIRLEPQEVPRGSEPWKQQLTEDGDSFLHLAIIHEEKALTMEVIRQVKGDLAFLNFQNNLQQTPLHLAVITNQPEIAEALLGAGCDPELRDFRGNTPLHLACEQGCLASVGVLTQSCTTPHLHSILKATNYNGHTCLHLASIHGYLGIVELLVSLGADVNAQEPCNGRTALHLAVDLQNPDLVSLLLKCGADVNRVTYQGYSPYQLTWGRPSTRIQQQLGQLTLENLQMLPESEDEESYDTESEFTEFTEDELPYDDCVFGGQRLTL
Put plainly: Binding affinity to NFKBIA (unknown origin).

Another assay deals with Ephrin type-A receptor 2 (Homo sapiens, UniProt P29317). The experiment in a line: Binding affinity to recombinant human GST-tagged EphA2 cytoplasmic domain (560 to 976 residues) expressed in baculovirus expression system by fluorescence polarization assay. A general note: In fluorescence polarisation assays a small probe gives low polarisation when free and higher when bound to something large.

The target of assay [5] is RAC-alpha serine/threonine-protein kinase (Homo sapiens, UniProt P31749). Put plainly: Binding affinity to AKT1 (unknown origin).
Assay [6] is described as follows: Binding affinity to GST (unknown origin) by fluorescence polarization assay. More on the design: species or system Homo sapiens.
A further assay is filed under the species Homo sapiens. The experiment in a line: Selectivity ratio of Kd for GST (unknown origin) to Kd for recombinant human GST-tagged EphA2 cytoplasmic domain (560 to 976 residues) expressed in baculovirus expression system.

Sequence of RAC-alpha serine/threonine-protein kinase (P31749 whole entry): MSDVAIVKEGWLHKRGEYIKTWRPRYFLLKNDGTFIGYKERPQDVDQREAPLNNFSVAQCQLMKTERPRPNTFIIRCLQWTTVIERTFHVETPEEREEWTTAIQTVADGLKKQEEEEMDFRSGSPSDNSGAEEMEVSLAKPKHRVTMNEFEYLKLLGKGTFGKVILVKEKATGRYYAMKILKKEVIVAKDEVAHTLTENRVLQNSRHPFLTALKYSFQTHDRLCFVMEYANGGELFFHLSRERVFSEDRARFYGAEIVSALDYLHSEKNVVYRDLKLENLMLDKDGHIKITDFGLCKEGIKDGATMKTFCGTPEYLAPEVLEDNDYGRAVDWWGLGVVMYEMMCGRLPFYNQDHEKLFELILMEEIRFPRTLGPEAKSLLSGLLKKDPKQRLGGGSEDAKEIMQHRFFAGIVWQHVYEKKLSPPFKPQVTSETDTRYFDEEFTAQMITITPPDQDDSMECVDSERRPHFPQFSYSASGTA
Sequence of Ephrin type-A receptor 2 (P29317 whole entry, the tested form may be a part): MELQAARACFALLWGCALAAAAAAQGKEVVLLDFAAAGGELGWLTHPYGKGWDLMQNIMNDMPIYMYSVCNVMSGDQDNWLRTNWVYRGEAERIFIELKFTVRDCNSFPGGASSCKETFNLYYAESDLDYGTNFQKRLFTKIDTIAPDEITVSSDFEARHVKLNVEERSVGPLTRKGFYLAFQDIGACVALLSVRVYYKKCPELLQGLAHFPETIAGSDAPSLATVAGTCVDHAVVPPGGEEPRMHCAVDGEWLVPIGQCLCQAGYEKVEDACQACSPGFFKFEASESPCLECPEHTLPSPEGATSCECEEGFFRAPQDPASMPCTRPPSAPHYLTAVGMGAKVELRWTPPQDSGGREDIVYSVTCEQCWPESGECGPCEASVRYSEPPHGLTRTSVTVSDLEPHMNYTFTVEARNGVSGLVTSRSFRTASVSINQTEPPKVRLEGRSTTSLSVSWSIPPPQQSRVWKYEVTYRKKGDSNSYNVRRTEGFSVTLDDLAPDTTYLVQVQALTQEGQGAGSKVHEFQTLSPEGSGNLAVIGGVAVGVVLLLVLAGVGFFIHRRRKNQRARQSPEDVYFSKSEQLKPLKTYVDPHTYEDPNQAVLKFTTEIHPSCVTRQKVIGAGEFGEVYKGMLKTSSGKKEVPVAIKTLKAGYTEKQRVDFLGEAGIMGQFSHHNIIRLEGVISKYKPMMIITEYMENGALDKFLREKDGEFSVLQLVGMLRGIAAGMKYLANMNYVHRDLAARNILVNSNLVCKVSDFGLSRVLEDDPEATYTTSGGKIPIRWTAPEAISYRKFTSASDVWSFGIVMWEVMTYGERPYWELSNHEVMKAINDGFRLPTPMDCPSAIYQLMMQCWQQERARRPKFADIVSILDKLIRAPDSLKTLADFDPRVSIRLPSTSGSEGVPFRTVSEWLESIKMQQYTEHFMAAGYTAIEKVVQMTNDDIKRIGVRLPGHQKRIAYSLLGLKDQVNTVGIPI

For the molecule `NC(=O)CN1C[C@H](Cc2ccccc2)NC(=O)CN(C(=O)CCC(=O)O)C[C@H](CCC(=O)O)NC(=O)CN(C(=O)Cc2ccc3c(c2)OCO3)C[C@H](CCC(=O)O)NC(=O)CN(C(=O)CCC2CCCCC2)C[C@H](Cc2ccccc2)NC(=O)c2ccc(cc2)CSCCC1=O`, the Activity result is “Tde” with C13 [1], “Dose-dependent effect” in the assay with C13 [2] and 70% with C13 [3].
Regarding `NC(=O)[C@H](CCCCNC(=S)Nc1ccc(-c2c3ccc(=O)cc-3oc3cc(O)ccc23)c(C(=O)O)c1)NC(=O)CN1C[C@H](Cc2ccccc2)NC(=O)CN(C(=O)CCC(=O)O)C[C@H](CCC(=O)O)NC(=O)CN(C(=O)Cc2ccc3c(c2)OCO3)C[C@H](CCC(=O)O)NC(=O)CN(C(=O)CCC2CCCCC2)C[C@H](Cc2ccccc2)NC(=O)c2ccc(cc2)CSCCC1=O`, the Kd was found to be 741 nM in assay [4], 81 nM on Ephrin type-A receptor 2, 3620 nM in assay [5] and 14200 nM in assay [6]. Further, the Selectivity ratio in the assay filed under Homo sapiens is 170.
